From paper PMC9947975, “Design, Synthesis, and Biological Evaluation Studies of Novel Naphthalene-Chalcone Hybrids As Antimicrobial, Anticandidal, Anticancer, and VEGFR-2 Inhibitors” (ACS Omega, 2023)
Converted amounts (≈) assume the structure as drawn.

How the values were obtained:
[1] = system: B. subtilis (ATCC 6051); assay: Antibacterial activity, MIC50 by resazurin fluorometric measurement; type: cell-based; settings: Bacillus subtilis, ATCC6051; means of triplicate assays
Method: (§1) Obtained compounds (2a–2j) were evaluated for antibacterial activity against Escherichia coli (E. coli) (ATCC 25922), Pseudomonas aeruginosa (P. aeruginosa) (ATCC 27853), […] (E. faecalis) (ATCC 2942), Bacillus subtilis (B. subtilis) (ATCC 6051), Staphylococcus aureus (S. aureus) (ATCC 29213), and Staphylococcus epidermidis (S. epidermidis) (ATCC 12228). MIC50 values were determined via fluorometric measurements, using resazurin solution.[13] Azithromycin was used as a standard drug in the antibacterial activity test.
(§2) The antimicrobial activity of obtained derivatives (2a–2j) was screened on six bacterial and three fungal strains according to the standard procedure of CLSI[20] as described in the previous study.[21] The antibacterial activities of the obtained compounds were screened against B. subtilis (ATCC 6051), E. coli (ATCC 25922), E. faecalis (ATCC 2942), P. aeruginosa (ATCC 27853), S. aureus (ATCC 29213), and S. epidermidis (ATCC 12228). The obtained compounds were evaluated for anticandidal activity against C. albicans (ATCC 24433), C. krusei (ATCC 6258), and C. parapsilopsis (ATCC 22019). For antibacterial activity, azithromycin was utilized as a reference drug, whereas voriconazole and fluconazole were used for anticandidal activity.

[2] = system: E. coli (ATCC 25922); assay: as above; type: cell-based; settings: Escherichia coli, ATCC25922; means of triplicate assays
Method: as §1, §2

[3] = system: P. aeruginosa (ATCC 27853); assay: as above; type: cell-based; settings: Pseudomonas aeruginosa, ATCC27853; means of triplicate assays
Method: as §1, §2

[4] = system: E. faecalis (ATCC 2942); assay: as above; type: cell-based, Enterococcus faecalis; settings: Enterococcus faecalis, ATCC2942, means of triplicate assays
Method: as §1, §2

[5] = system: S. aureus (ATCC 29213); assay: as above; type: cell-based, Staphylococcus aureus; settings: Staphylococcus aureus, ATCC29213, means of triplicate assays
Method: as §1, §2

[6] = system: S. epidermidis (ATCC 12228); assay: as above; type: cell-based, Staphylococcus epidermidis; settings: Staphylococcus epidermidis, ATCC12228, means of triplicate assays; read-out: MIC50 S. epidermis
Method: as §1, §2

[7] = system: C. albicans (ATCC 24433); assay: Anticandidal activity, MIC50 by resazurin fluorometric measurement; type: cell-based, Candida albicans; settings: Candida albicans, ATCC24433, means of triplicate assays
Method: (§3) Obtained compounds (2a–2j) were evaluated for anticandidal activity against Candida albicans (C. albicans) (ATCC 24433), Candida krusei (C. krusei) (ATCC 6258), and Candida parapsilopsis (C. parapsilopsis) (ATCC 22019). MIC50 values were determined via fluorometric measurements, using resazurin solution.[13] Voriconazole and fluconazole were used as a standard drug in the anticandidal activity test. […] In general, it is seen that the 2-methoxyethyl substituent increases the anticandidal activity.
as §2

[8] = system: C. krusei (ATCC 6258); assay: as above; type: cell-based, Candida krusei; settings: Pichia kudriavzevii, ATCC6258, means of triplicate assays
Method: as §3, §2

[9] = system: C. parapsilopsis (ATCC 22019); assay: as above; type: cell-based, Candida parapsilopsis; settings: Candida, ATCC22019; means of triplicate assays
Method: as §3, §2

[10] = system: A549 cell line; assay: MTT cytotoxicity test; type: cell-based; settings: Homo sapiens, A549, 24 h, MTT, 24-h treatment, means of quartet assays ± SEM
Method: (§4) The MTT test was performed using 3 different cell lines for calculated IC50 values of obtained compounds. […] For this purpose, the cytotoxic effects of the compounds against the healthy mouse fibroblast cell (NIH3T3) were investigated.
(§5) The 3-(4,5-dimethylthiazol-2-yl)-2,5-diphenyltetrazolium salt reduction method, or MTT assay, is used to measure the metabolic activity of live cells. […] Doxorubicin is used as a therapeutic drug. MTT assays were carried out as previously explained.[19]

[11] = system: HepG2 cell line; assay: MTT cytotoxicity test; type: cell-based; settings: Homo sapiens, 24-h treatment, means of quartet assays ± SEM
Method: as §4, §5

[12] = system: healthy mouse fibroblast cell (NIH3T3); assay: MTT cytotoxicity test on healthy cells; type: cell-based; settings: 24-h treatment, means of quartet assays ± SEM
Method: as §4, §5

[13] = system: carcinogenic cell lines; assay: Flow cytometric analysis of apoptosis and necrosis (Apoptosis, Necrosis and Healthy Cell Quantitation Kit Plus); type: cell-based; settings: IC50 concentration, 24-h incubation
Text: The flow cytometer was used to calculate the percentages of apoptotic and necrotic cells in four different quadrants, which are denoted by the letters “UL, UR, LL, LR” (Upper Left, Upper Right, Lower Left, Lower Right). The four distinct quadrants in the diagram represent the following areas, respectively: Apoptotic or early apoptotic cells, LR: CF488A+/(EthD-III)-; necrotic or late apoptotic cells, […]: CF488A+/(EthD-III)+; intact cells, LL: CF488A/(EthD-III); and dead or necrotic cells, UR: CF488A+/(EthD-III)+. The IC50 concentration of each substance was used in administration.
Death pathway of the carcinogenic cell lines was detected by Apoptosis, Necrosis and Healthy Cell Quantitation Kit Plus (Cat: 30066, Biotium, Hayward, CA, USA)[22] as reported in the manufacturer’s instruction. The IC50 values for doxorubicin and compound 2j were applied. Cells were collected by centrifugation at 1200 rpm for 5 min following a 24-h incubation period. It was washed 2 times with PBS, centrifuged and turned into pellets. One ×10^6 cells/mL of annexin were suspended in V-FITC binding buffer. Ethidium iodide ([…]), Hoestch 1 mL, and annexin V-FITC ([…]) were added to stain cells and using the CytoFLEX Flow Cytometer (Beckman Coulter Life Sciences, USA) and CytExpert for CytoFLEX Acquisition and Analysis Software Version 2.2.0.97 instrument. Fluorescence measurements were made using a flow cytometer in accordance with the instrument procedure.

[14] = system: A549 cell line; assay: Analysis of mitochondrial membrane potential (MMP) by flow cytometry, JC-1 dye; type: cell-based; settings: A549, IC50 concentration, 24-h incubation
Method: After a 24-h incubation period, mitochondrial membrane potential was measured with JC-1 dye.
The BD Mitoscreen Mitochondrial Membrane Potential Detection JC-1 Kit (available from ref ([23])) was used for the MMP test. First, A549 cells were seeded in 25 mL flasks and incubated for 24 h in a 5% CO2 incubator. […] At the end of this period, cells were collected and centrifuged in accordance with the kit contents. After the upper part was removed, JC-1 dye was added and incubated at 37 °C for 10–15 min. At the end of the period, it was washed 2 times with washing solution and reading was done with the appropriate procedure using the CytoFLEX Flow Cytometer (Beckman Coulter Life Sciences, USA) and CytExpert for CytoFLEX Acquisition and Analysis Software Version 2.2.0.97.

[15] = system: carcinogenic cell lines; assay: Flow cytometric analysis of apoptosis and necrosis (Apoptosis, Necrosis and Healthy Cell Quantitation Kit Plus); type: cell-based; settings: IC50 concentration, 24-h incubation; remark: listed apart in the source

MIC50 [1] | MIC50 [2] | MIC50 [3] | MIC50 [4] | MIC50 [5] | MIC50 [6] | MIC50 [7] | MIC50 [8] | MIC50 [9] | melting point | Structure (SMILES) | IC50 [10] | IC50 [11] | IC50 [12] | early apoptosis (Q1-LR) [13] | intact cells (Q1-LL) [13] | necrosis (Q1-UL) [13] | rate of apoptosis (early + late apoptosis) [13] | mitochondrial membrane potential (P3) [14] | late apoptosis (Q1-UR) [15]
> 100 µg/mL | > 100 µg/mL | 62.5 µg/mL (≈ 169 µM) | 31.3 µg/mL (≈ 84.5 µM) | 31.3 µg/mL (≈ 84.5 µM) | 31.3 µg/mL (≈ 84.5 µM) | 15.6 µg/mL (≈ 42.1 µM) | 62.5 µg/mL (≈ 169 µM) | > 100 µg/mL | 164.6 to 166.1 °C | CCN1CCN(c2ccc(C(=O)C=Cc3cccc4ccccc34)cc2)CC1 [2b, 1-(4-(4-Ethylpiperazin-1-yl)phenyl)-3-(naphthalen-1-yl)prop-2-en-1-one] | > 100 µM | 45.8 ± 8.4 µM | 22.9 ± 0.76 µM | – | – | – | – | – | –
– | – | – | – | – | – | 7.81 µg/mL (≈ 25.5 µM) | 7.81 µg/mL (≈ 25.5 µM) | 3.9 µg/mL (≈ 12.7 µM) | – | OC(Cn1cncn1)(Cn1cncn1)c1ccc(F)cc1F [SD3, Fluconazole, reference compound] | – | – | – | – | – | – | – | – | –
– | – | – | – | – | – | – | – | – | – | COc1cccc2c1C(=O)c1c(O)c3c(c(O)c1C2=O)C[C@@](O)(C(=O)CO)C[C@@H]3O[C@H]1C[C@H](N)[C@H](O)[C@H](C)O1 [SD4, Doxorubicin, reference compound] | 2.97 ± 0.16 µM | 9.47 ± 1.49 µM | > 100 µM | 8.55% | 80.85% | 1.76% | 17.4% | 30.270% | 8.84%
> 100 µg/mL | > 100 µg/mL | > 100 µg/mL | 31.3 µg/mL (≈ 87.8 µM) | 31.3 µg/mL (≈ 87.8 µM) | 15.6 µg/mL (≈ 43.8 µM) | 62.5 µg/mL (≈ 175 µM) | > 100 µg/mL | > 100 µg/mL | 204.5 to 206.2 °C | CN1CCN(c2ccc(C(=O)C=Cc3ccc4ccccc4c3)cc2)CC1 [2f, 1-(4-(4-Methylpiperazin-1-yl)phenyl)-3-(naphthalen-2-yl)prop-2-en-1-one] | 35.7 ± 0.37 µM | 29.7 ± 0.79 µM | 25.6 ± 0.26 µM | – | – | – | – | – | –
– | – | – | – | – | – | 3.9 µg/mL (≈ 11.2 µM) | 3.9 µg/mL (≈ 11.2 µM) | 1.95 µg/mL (≈ 5.58 µM) | – | C[C@@H](c1ncncc1F)[C@](O)(Cn1cncn1)c1ccc(F)cc1F [SD2, Voriconazole, reference compound] | – | – | – | – | – | – | – | – | –
> 100 µg/mL | > 100 µg/mL | 62.5 µg/mL (≈ 175 µM) | 31.3 µg/mL (≈ 87.8 µM) | > 100 µg/mL | 62.5 µg/mL (≈ 175 µM) | 31.3 µg/mL (≈ 87.8 µM) | 62.5 µg/mL (≈ 175 µM) | 62.5 µg/mL (≈ 175 µM) | 150.2 to 152.1 °C | CN1CCN(c2ccc(C(=O)C=Cc3cccc4ccccc34)cc2)CC1 [2a, 1-(4-(4-Methylpiperazin-1-yl)phenyl)-3-(naphthalen-1-yl)prop-2-en-1-one] | > 100 µM | > 100 µM | 61.9 ± 1.42 µM | – | – | – | – | – | –
< 0.97 µg/mL | < 0.97 µg/mL | < 0.97 µg/mL | < 0.97 µg/mL | < 0.97 µg/mL | < 0.97 µg/mL | – | – | – | – | CC[C@H]1OC(=O)[C@H](C)[C@@H](O[C@H]2C[C@@](C)(OC)[C@@H](O)[C@H](C)O2)[C@H](C)[C@@H](O[C@@H]2O[C@H](C)C[C@H](N(C)C)[C@H]2O)[C@](C)(O)C[C@@H](C)CN(C)[C@H](C)[C@@H](O)[C@]1(C)O [SD1, Azithromycin, reference compound] | – | – | – | – | – | – | – | – | –
